Experiments:
[1] = system: HL-60(TB); assay: Cytotoxicity against human HL-60(TB) cells incubated for 48 hrs by sulforhodamine B assay; format: functional; conditions: HL-60, 48 h
[2] = system: K562; assay: Cytotoxicity against human K562 cells incubated for 48 hrs by sulforhodamine B assay; format: functional; conditions: K562, 48 h
[3] = system: SR; assay: Cytotoxicity against human SR cells incubated for 48 hrs by sulforhodamine B assay; format: functional
[4] = system: NCI-H226; assay: Cytotoxicity against human NCI-H226 cells incubated for 48 hrs by sulforhodamine B assay; format: functional; conditions: NCI-H226, 48 h
[5] = system: NCI-H522; assay: Cytotoxicity against human NCI-H522 cells incubated for 48 hrs by sulforhodamine B assay; format: functional; conditions: NCI-H522, 48 h
[6] = system: COLO 205; assay: Cytotoxicity against human COLO205 cells incubated for 48 hrs by sulforhodamine B assay; format: functional; conditions: COLO 205, 48 h
[7] = system: HCC 2998; assay: Cytotoxicity against human HCC2998 cells incubated for 48 hrs by sulforhodamine B assay; format: functional; conditions: HCC 2998, 48 h
[8] = system: HT-29; assay: Cytotoxicity against human HT-29 cells incubated for 48 hrs by sulforhodamine B assay; format: functional; conditions: HT-29, 48 h
[9] = system: KM12; assay: Cytotoxicity against human KM12 cells incubated for 48 hrs by sulforhodamine B assay; format: functional; conditions: KM12, 48 h
[10] = system: SF-268; assay: Cytotoxicity against human SF268 cells incubated for 48 hrs by sulforhodamine B assay; format: functional; conditions: SF-268, 48 h
[11] = system: SF-295; assay: Cytotoxicity against human SF295 cells incubated for 48 hrs by sulforhodamine B assay; format: functional; conditions: SF-295, 48 h
[12] = system: SNB-19; assay: Cytotoxicity against human SNB19 cells incubated for 48 hrs by sulforhodamine B assay; format: functional; conditions: SNB-19, 48 h
[13] = system: SNB-75; assay: Cytotoxicity against human SNB75 cells incubated for 48 hrs by sulforhodamine B assay; format: functional; conditions: SNB-75, 48 h
[14] = system: U-251; assay: Cytotoxicity against human U251 cells incubated for 48 hrs by sulforhodamine B assay; format: functional; conditions: U-251, 48 h
[15] = system: LOX IMVI; assay: Cytotoxicity against human LOXIMVI cells incubated for 48 hrs by sulforhodamine B assay; format: functional
[16] = system: Malme-3M; assay: Cytotoxicity against human MALME-3M cells incubated for 48 hrs by sulforhodamine B assay; format: functional
[17] = system: SK-MEL-2; assay: Cytotoxicity against human SK-MEL-2 cells incubated for 48 hrs by sulforhodamine B assay; format: functional; conditions: SK-MEL-2, 48 h
[18] = system: SK-MEL-5; assay: Cytotoxicity against human SK-MEL-5 cells incubated for 48 hrs by sulforhodamine B assay; format: functional; conditions: SK-MEL-5, 48 h
[19] = system: UACC-257; assay: Cytotoxicity against human UACC257 cells incubated for 48 hrs by sulforhodamine B assay; format: functional; conditions: UACC-257, 48 h
[20] = system: UACC-62; assay: Cytotoxicity against human UACC62 cells incubated for 48 hrs by sulforhodamine B assay; format: functional; conditions: UACC-62, 48 h
[21] = system: ACHN; assay: Cytotoxicity against human ACHN cells incubated for 48 hrs by sulforhodamine B assay; format: functional
[22] = system: RXF 393; assay: Cytotoxicity against human RXF393 cells incubated for 48 hrs by sulforhodamine B assay; format: functional; conditions: RXF 393, 48 h
[23] = system: SN12C; assay: Cytotoxicity against human SN12C cells incubated for 48 hrs by sulforhodamine B assay; format: functional
[24] = system: MCF7; assay: Cytotoxicity against human MCF7 cells incubated for 48 hrs by sulforhodamine B assay; format: functional; conditions: MCF7, 48 h
[25] = system: MDA-MB-231; assay: Cytotoxicity against human MDA-MB-231 cells incubated for 48 hrs by sulforhodamine B assay; format: functional; conditions: MDA-MB-231, 48 h
[26] = molecular target: Tubulin (Homo sapiens) (UniProt P68371+Q9H4B7+P0DPH7+P68366+Q13509+Q71U36+P04350+Q3ZCM7+P07437+P68363+Q9BQE3+Q6PEY2+Q13885+Q9BVA1+Q9BUF5); assay: Inhibition of tubulin (unknown origin) polymerization assessed as polymerized tubulin level at 5 to 25 uM by fluorescence assay; format: protein-complex assay
[27] = system: A549; assay: Induction of apoptosis in human A549 cells assessed as necrotic cells at 1.4 uM after 24 hrs by Annexin V/propidium iodide staining based flow cytometric analysis (reference value: 0.09%); format: functional
[28] = read-out: LC50 (the source's name)

COc1ccc(-c2nc3sc(-c4ccc(Cl)cc4)cn3n2)cc1
GI50 [1]: > 50 µM | TGI [1]: > 50 µM | CC50 [1, 28]: > 50 µM | GI50 [2]: 29.4 µM | TGI [2]: > 50 µM | CC50 [2, 28]: > 50 µM | GI50 [3]: 4.53 µM | TGI [3]: 26.1 µM | CC50 [3, 28]: > 50 µM | GI50 [4]: 11.1 µM | TGI [4]: > 50 µM | CC50 [4, 28]: > 50 µM | GI50 [5]: 14.9 µM | TGI [5]: > 50 µM | CC50 [5, 28]: > 50 µM | GI50 [6]: 2.56 µM | TGI [6]: > 50 µM | CC50 [6, 28]: > 50 µM | GI50 [7]: > 50 µM | TGI [7]: > 50 µM | CC50 [7, 28]: 39.4 µM | GI50 [8]: 2.96 µM | TGI [8]: > 50 µM | CC50 [8, 28]: > 50 µM | GI50 [9]: 12.2 µM | TGI [9]: > 50 µM | CC50 [9, 28]: > 50 µM | GI50 [10]: 48 µM | TGI [10]: > 50 µM | CC50 [10, 28]: > 50 µM | GI50 [11]: 2.81 µM | TGI [11]: 31.8 µM | CC50 [11, 28]: > 50 µM | GI50 [12]: 2.47 µM | TGI [12]: > 50 µM | CC50 [12, 28]: > 50 µM | GI50 [13]: 1.61 µM | TGI [13]: 6.85 µM | CC50 [13, 28]: 23.3 µM | GI50 [14]: 1.03 µM | TGI [14]: 2.29 µM | CC50 [14, 28]: 5.53 µM | GI50 [15]: > 50 µM | TGI [15]: > 50 µM | CC50 [15, 28]: > 50 µM | GI50 [16]: 2.71 µM | TGI [16]: > 50 µM | CC50 [16, 28]: > 50 µM | GI50 [17]: > 50 µM | TGI [17]: > 50 µM | CC50 [17, 28]: > 50 µM | GI50 [18]: 14 µM | TGI [18]: > 50 µM | CC50 [18, 28]: > 50 µM | GI50 [19]: > 50 µM | TGI [19]: > 50 µM | CC50 [19, 28]: > 50 µM | GI50 [20]: 8.24 µM | TGI [20]: > 50 µM | CC50 [20, 28]: > 50 µM | GI50 [21]: 0.927 µM | TGI [21]: 2.02 µM | CC50 [21, 28]: 4.41 µM | GI50 [22]: 5.99 µM | TGI [22]: 39.7 µM | CC50 [22, 28]: > 50 µM | GI50 [23]: 1.84 µM | TGI [23]: > 50 µM | CC50 [23, 28]: > 50 µM | GI50 [24]: 2.62 µM | TGI [24]: > 50 µM | CC50 [24, 28]: > 50 µM | GI50 [25]: 2.06 µM | TGI [25]: 16.7 µM | CC50 [25, 28]: > 50 µM | Activity [26]: 1510 a.u. | Activity [27]: 1.34%
